Experimental data as given in patent publication US9980943B2, “Methods of treating muscular dystrophy” (BOARD OF REGENTS OF THE NEVADA SYSTEM OF HIGHER EDUCATION, …, priority 2013, dated 2018).

Key:
Format in all cases: cell-based, mouse
[1] = test system: α7 integrin (LacZ reporter in α7βgal+/− myoblasts); experiment: Myoblast α7+/LacZ integrin FDG assay (Burkin assay in myoblasts, 96-well); details: α7+/LacZ myoblasts, 96-well
[2] = test system: α7 integrin (LacZ reporter in α7+/LacZ myotubes); experiment: Myotube α7 integrin FDG assay (Burkin assay in myotubes, 96-well); details: myotubes
[3] = test system: β-galactosidase in CMV-LacZ C2C12 myotubes; experiment: CMV-LacZ secondary screen in C2C12 myotubes (β-Gal stabilizing assay); details: for CMV-LACZ in Myotubes (β-galactosidase activity relative to DMSO): CMV-LacZ C2C12 myotubes, 96-well format
In short: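 β-Gal level was the read-out, measured in a clonal C2C12 line expressing LacZ from a CMV promoter. Dose-response curves used six concentrations, 0.5 μM up to 40 μM, with duplicate points.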

[4] = 5 uM, C2C12 CMV-LacZ myotubes, fold relative to DMSO
[5] = 10 uM, C2C12 CMV-LacZ myotubes, fold relative to DMSO
[6] = 20 uM, C2C12 CMV-LacZ myotubes, fold relative to DMSO
[7] = 40 uM, C2C12 CMV-LacZ myotubes, fold relative to DMSO

SMILES | Burkin Assay in Myoblasts, signal relative to DMSO ([1]; 0.5 uM) | Burkin Assay in Myoblasts, signal relative to DMSO ([1]; 1 uM) | Burkin Assay in Myoblasts, signal relative to DMSO ([1]; 5 uM) | Burkin Assay in Myoblasts, signal relative to DMSO ([1]; 10 uM) | Burkin Assay in Myoblasts, value relative to DMSO ([1]; 0.5 uM) | Burkin Assay in Myoblasts, value relative to DMSO ([1]; 1 uM) | Burkin Assay in Myoblasts, value relative to DMSO ([1]; 5 uM) | Burkin Assay in Myoblasts, value relative to DMSO ([1]; 10 uM) | Burkin Assay in Myoblasts, value relative to DMSO ([1]; 20 uM) | Burkin Assay in Myoblasts, value relative to DMSO ([1]; 40 uM) | Burkin Assay in Myotubes (signal relative to DMSO) ([2]; 0.5 uM) | Burkin Assay in Myotubes (signal relative to DMSO) ([2]; 1 uM) | Burkin Assay in Myotubes (signal relative to DMSO) ([2]; 5 uM) | Burkin Assay in Myotubes (signal relative to DMSO) ([2]; 10 uM) | Burkin Assay in Myotubes (signal relative to DMSO) ([2]; 20 uM) | Burkin Assay in Myotubes (signal relative to DMSO) ([2]; 40 uM) | CMV-LACZ in Myotubes (β-galactosidase activity relative to DMSO) ([3]; 5 uM) | CMV-LACZ in Myotubes (β-galactosidase activity relative to DMSO) ([3]; 10 uM) | CMV-LACZ in Myotubes (β-galactosidase activity relative to DMSO) ([3]; 20 uM) | CMV-LACZ in Myotubes (β-galactosidase activity relative to DMSO) ([3]; 40 uM) | also measured
CC(=O)Nc1ccc(N(C(=O)c2cnccn2)C(C(=O)NC2CCCCC2)c2ccc(F)cc2)cc1 (centres unmarked) [MLS001225507-01] | 1.0374 | 0.9444 | 0.9036 | 0.8292 |  |  |  |  |  |  |  |  |  |  |  |  |  |  |  |  | Burkin Assay in Myoblasts, signal relative to DMSO ([1]; 20 uM): 0.8685; Burkin Assay in Myoblasts, signal relative to DMSO ([1]; 40 uM): 0.888; Burkin Assay in Myotubes, α7 integrin LacZ reporter signal relative to DMSO ([2]; 0.5 uM): 0.9321; Burkin Assay in Myotubes, α7 integrin LacZ reporter signal relative to DMSO ([2]; 1 uM): 0.6741; Burkin Assay in Myotubes, α7 integrin LacZ reporter signal relative to DMSO ([2]; 5 uM): 1.013; Burkin Assay in Myotubes, α7 integrin LacZ reporter signal relative to DMSO ([2]; 10 uM): 1.002; Burkin Assay in Myotubes, α7 integrin LacZ reporter signal relative to DMSO ([2]; 20 uM): 1.175; Burkin Assay in Myotubes, α7 integrin LacZ reporter signal relative to DMSO ([2]; 40 uM): 0.9539; CMV-LACZ in Myotubes, signal relative to DMSO [3, 4]: 1.04; CMV-LACZ in Myotubes, signal relative to DMSO [3, 5]: 0.994; CMV-LACZ in Myotubes, signal relative to DMSO [3, 6]: 0.8655; CMV-LACZ in Myotubes, signal relative to DMSO [3, 7]: 0.8805
O=C1CCc2cc(S(=O)(=O)Nc3ccc(C(F)(F)F)cc3)cc3c2N1CC3 [MLS001237320-01] | 0.9733 | 0.9848 | 0.9145 | 0.8495 |  |  |  |  |  |  |  |  |  |  |  |  |  |  |  |  | Burkin Assay in Myoblasts, signal relative to DMSO ([1]; 20 uM): 0.9287; Burkin Assay in Myoblasts, signal relative to DMSO ([1]; 40 uM): 0.8187; Burkin Assay in Myotubes, α7 integrin LacZ reporter signal relative to DMSO ([2]; 0.5 uM): 0.9879; Burkin Assay in Myotubes, α7 integrin LacZ reporter signal relative to DMSO ([2]; 1 uM): 1.055; Burkin Assay in Myotubes, α7 integrin LacZ reporter signal relative to DMSO ([2]; 5 uM): 1.035; Burkin Assay in Myotubes, α7 integrin LacZ reporter signal relative to DMSO ([2]; 10 uM): 0.6554; Burkin Assay in Myotubes, α7 integrin LacZ reporter signal relative to DMSO ([2]; 20 uM): 0.9912; Burkin Assay in Myotubes, α7 integrin LacZ reporter signal relative to DMSO ([2]; 40 uM): 0.9787; CMV-LACZ in Myotubes, signal relative to DMSO [3, 4]: 0.9582; CMV-LACZ in Myotubes, signal relative to DMSO [3, 5]: 0.7569; CMV-LACZ in Myotubes, signal relative to DMSO [3, 6]: 0.9895; CMV-LACZ in Myotubes, signal relative to DMSO [3, 7]: 1.082
COCCN(CC(=O)Nc1cccc(C)c1C)C(=O)C1CCN(S(=O)(=O)c2ccccc2)CC1 [MLS002156278-01] |  |  |  |  | 0.8597 | 0.9642 | 1.01 | 0.9653 | 0.8604 | 0.8246 | 1.005 | 0.9637 | 0.6908 | 0.9924 | 0.9719 | 1.025 | 0.8694 | 1.096 | 0.9667 | 1.031 | 
CNc1nnc(SCC(=O)c2cc(C)n(C3CC3)c2C)s1 [MLS002156485-01] |  |  |  |  | 1.059 | 0.9382 | 0.9278 | 0.8752 | 1.052 | 1.026 | 1.0551 | 0.9807 | 1.2005 | 1.0687 | 1.057 | 1.156 | 0.9468 | 0.9523 | 1.115 | 0.9483 | 
Cc1ccc(OCC(=O)N2CCN(S(=O)(=O)c3ccc4c(c3)OCCO4)CC2)c(C)c1 [MLS002158881-01] |  |  |  |  |  |  |  |  |  |  |  |  |  |  |  |  |  |  |  |  | fold induction at 0.5 µM ([1]; Mus musculus, Myoblast, 48 h, 0.5 uM, read-out: Burkin Assay in Myoblasts, signal relative to DMSO): 0.888; fold induction at 1 µM ([1]; Mus musculus, Myoblast, 48 h, 1 uM, read-out: Burkin Assay in Myoblasts, signal relative to DMSO): 0.838; fold induction at 5 µM ([1]; Mus musculus, Myoblast, 48 h, 5 uM, read-out: Burkin Assay in Myoblasts, signal relative to DMSO): 0.989; fold induction at 10 µM ([1]; Mus musculus, Myoblast, 48 h, 10 uM, read-out: Burkin Assay in Myoblasts, signal relative to DMSO): 1.02; fold induction at 20 µM ([1]; Mus musculus, Myoblast, 48 h, 20 uM, read-out: Burkin Assay in Myoblasts, signal relative to DMSO): 1.12; fold induction at 40 µM ([1]; Mus musculus, Myoblast, 48 h, 40 uM, read-out: Burkin Assay in Myoblasts, signal relative to DMSO): 1.21; fold induction at 0.5 µM ([2]; Mus musculus, Myotube, 0.5 uM, read-out: Burkin Assay in Myotubes, α7 integrin LacZ reporter signal relative to DMSO): 0.896; fold induction at 1 µM ([2]; Mus musculus, Myotube, 1 uM, read-out: Burkin Assay in Myotubes, α7 integrin LacZ reporter signal relative to DMSO): 0.865; fold induction at 5 µM ([2]; Mus musculus, Myotube, 5 uM, read-out: Burkin Assay in Myotubes, α7 integrin LacZ reporter signal relative to DMSO): 0.67; fold induction at 10 µM ([2]; Mus musculus, Myotube, 10 uM, read-out: Burkin Assay in Myotubes, α7 integrin LacZ reporter signal relative to DMSO): 0.773; fold induction at 20 µM ([2]; Mus musculus, Myotube, 20 uM, read-out: Burkin Assay in Myotubes, α7 integrin LacZ reporter signal relative to DMSO): 1.2; fold induction at 40 µM ([2]; Mus musculus, Myotube, 40 uM, read-out: Burkin Assay in Myotubes, α7 integrin LacZ reporter signal relative to DMSO): 1; fold induction at 5 µM ([3]; Mus musculus, C2C12, read-out: CMV-LACZ in Myotubes, signal relative to DMSO, 5 uM, C2C12 CMV-LacZ myotubes, fold relative to DMSO): 0.792; fold induction at 10 µM ([3]; Mus musculus, C2C12, read-out: CMV-LACZ in Myotubes, signal relative to DMSO, 10 uM, C2C12 CMV-LacZ myotubes, fold relative to DMSO): 0.827; fold induction at 20 µM ([3]; Mus musculus, C2C12, read-out: CMV-LACZ in Myotubes, signal relative to DMSO, 20 uM, C2C12 CMV-LacZ myotubes, fold relative to DMSO): 0.864; fold induction at 40 µM ([3]; Mus musculus, C2C12, read-out: CMV-LACZ in Myotubes, signal relative to DMSO, 40 uM, C2C12 CMV-LacZ myotubes, fold relative to DMSO): 0.81
CC1CCCCC12NC(=O)N(CC(=O)OCc1cccc(F)c1)C2=O (centres unmarked) [MLS002161350-01] | 0.9404 | 0.9236 | 0.9531 | 0.9514 |  |  |  |  |  |  |  |  |  |  |  |  |  |  |  |  | Burkin Assay in Myoblasts, signal relative to DMSO ([1]; 20 uM): 0.822; Burkin Assay in Myoblasts, signal relative to DMSO ([1]; 40 uM): 0.8262; Burkin Assay in Myotubes, α7 integrin LacZ reporter signal relative to DMSO ([2]; 0.5 uM): 0.9844; Burkin Assay in Myotubes, α7 integrin LacZ reporter signal relative to DMSO ([2]; 1 uM): 1.177; Burkin Assay in Myotubes, α7 integrin LacZ reporter signal relative to DMSO ([2]; 5 uM): 0.7783; Burkin Assay in Myotubes, α7 integrin LacZ reporter signal relative to DMSO ([2]; 10 uM): 0.987; Burkin Assay in Myotubes, α7 integrin LacZ reporter signal relative to DMSO ([2]; 20 uM): 1.049; Burkin Assay in Myotubes, α7 integrin LacZ reporter signal relative to DMSO ([2]; 40 uM): 1.116; CMV-LACZ in Myotubes, signal relative to DMSO [3, 4]: 0.906; CMV-LACZ in Myotubes, signal relative to DMSO [3, 5]: 0.9679; CMV-LACZ in Myotubes, signal relative to DMSO [3, 6]: 0.8847; CMV-LACZ in Myotubes, signal relative to DMSO [3, 7]: 1.046
O=C(CSc1nnc(C2CC2)n1C1CC1)c1cccs1 [MLS002161757-01] |  |  |  |  | 0.9614 | 0.892 | 0.9113 | 0.9135 | 1.009 | 1.151 | 0.8459 | 1.07 | 1.092 | 1.06 | 0.9795 | 1.146 | 0.919 | 1.102 | 1.153 | 1.256 | 
COCc1c(C(=O)OCc2nc3ccsc3c(=O)[nH]2)oc2ccccc12 [MLS002163386-01] |  |  |  |  | 1.0508 | 0.9023 | 1.034 | 0.888 | 1.014 | 0.9388 | 1.104 | 1.048 | 1.112 | 1.064 | 1.064 | 1.02 | 0.9749 | 1.196 | 0.9465 | 1.066 | 
